Laboratory results reported in patent US20260042753A1 (Merck Patent GmbH, priority 2019, published 2026).
Where a name gives a salt, the structure may show the parent alone. Read-outs that look alike come from different tables or passages of the source.

Key:
c-Kit(V654A) = c-Kit(V654A) (Homo sapiens, UniProt P10721, V654A); experiment: c-Kit(V654A) assay; assay type: biochemical
Description: c-Kit(V654A) (N-terminal GST-tagged, recombinant human c-Kit, amino acids 544-end containing the V654A mutation) is incubated with 8 mM MOPS pH 7.0, 0.2 mM EDTA, 250 μM GGMEDIYEFMGGKKK, 10 mM MgAcetate and [gamma-33P-ATP](specific activity approx. 500 cpm/pmol, concentration 200 μM). The reaction is initiated by the addition of the MgATP mix. After incubation for 40 minutes at room temperature, the reaction is stopped by the addition of 3% phosphoric acid solution. 10 μL of the reaction is then spotted onto a P30 filtermat and washed three times for 5 minutes in 75 mM phosphoric acid and once in methanol prior to drying and scintillation counting.

[1] = biological target: mutant cKIT (560-576 and V654A) in GIST430/654 cell line (Homo sapiens (Human), UniProt P10721, DEL560-576/V654A); experiment: Cellular testing of cKIT mutant inhibitors: phospho-Y307-cKIT Luminex assay in GIST430/654 cells; assay type: cell-based; conditions: read-out: GIST 430/654 IC50
mutant cKIT (560-576 and V654A) in GIST430/654 cell line, sequence (P10721 other isoform, or with tags, fused parts or gaps V654A/del 1-25/del 560-576 limits assumed): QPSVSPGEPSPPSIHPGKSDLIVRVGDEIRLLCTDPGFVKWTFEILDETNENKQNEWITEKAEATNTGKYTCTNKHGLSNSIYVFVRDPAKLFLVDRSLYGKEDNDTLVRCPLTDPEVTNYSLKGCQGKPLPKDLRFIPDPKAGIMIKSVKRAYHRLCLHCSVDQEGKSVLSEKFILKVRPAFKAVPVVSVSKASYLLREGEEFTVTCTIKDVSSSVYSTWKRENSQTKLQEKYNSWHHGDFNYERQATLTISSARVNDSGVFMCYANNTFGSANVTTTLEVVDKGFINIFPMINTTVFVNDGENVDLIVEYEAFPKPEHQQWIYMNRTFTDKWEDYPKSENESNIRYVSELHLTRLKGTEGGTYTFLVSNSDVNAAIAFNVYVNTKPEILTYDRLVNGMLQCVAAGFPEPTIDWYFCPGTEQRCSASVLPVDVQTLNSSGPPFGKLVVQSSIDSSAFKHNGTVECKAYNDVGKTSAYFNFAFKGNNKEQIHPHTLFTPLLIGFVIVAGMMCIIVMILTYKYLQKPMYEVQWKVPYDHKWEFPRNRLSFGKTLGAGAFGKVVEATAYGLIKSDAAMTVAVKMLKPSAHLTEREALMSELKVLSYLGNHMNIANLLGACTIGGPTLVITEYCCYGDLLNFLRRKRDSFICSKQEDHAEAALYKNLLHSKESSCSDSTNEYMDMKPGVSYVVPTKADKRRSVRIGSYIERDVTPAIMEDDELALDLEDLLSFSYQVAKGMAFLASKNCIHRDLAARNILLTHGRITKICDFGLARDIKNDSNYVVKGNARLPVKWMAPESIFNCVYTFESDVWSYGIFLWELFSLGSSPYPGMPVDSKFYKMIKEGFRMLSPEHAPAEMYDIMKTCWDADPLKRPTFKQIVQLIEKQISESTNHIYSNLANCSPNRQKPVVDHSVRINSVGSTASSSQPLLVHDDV
Description: Assay Principle for Cellular Testing of cKIT Mutant Inhibitors
The GIST430/654 cell line expressing mutated constitutively active cKIT receptor tyrosine kinase ([…]560-576 and V654A) was employed for assessing cellular potency of compounds. Cellular activity of mutant cKIT was determined by the degree of cKIT autophosphorylation at tyrosine 307 using a Luminex-based bead assay. GIST430/654 cells were plated with 25,000 cells per well of a 96-well plate in 100 μl medium (85% IMDM/15% FCS supplemented with 100 nM Imatinib). At the following day compounds were added in a serial dilution for 45 min. Then, cells were lysed with 90 μl lysis buffer (20 mM Hepes pH 7.5, 200 mM NaCl, 1.5 mM MgCl2×6H2O, 0.4 mM EDTA, 1% Triton-X-100, 1% Phosphatase-Inhibitor II, 20 mM D-Glycerolphosphat, 0.1% Protease-Inhibitor Cocktail III, 0.01% Benzonase) und lysates were cleared by centrifugation through a 96-well filter plate (0.65 μm). Samples were incubated with Luminex-beads which were coupled with an anti-total cKIT antibody overnight at 4° C. under gentle agitation. For detection of phospho-Y307-cKIT a phosphospecific antibody and a species-specific PE-labelled secondary antibody were added. The amount of phospho-Y307-cKIT was determined in a Luminex 200 instrument measuring 100 events per well within 60 seconds.
Counts from samples treated with compounds were calculated as percent of control from solvent treated (0.3% DMSO) samples. Dose-response curves were fitted and IC50 values were determined using Genedata Screener software.

[2] = Table 1, cKIT autophosphorylation, compounds 45 min
[3] = Table 2, corresponding triazole derivatives
[4] = Table 2, isoxazole derivatives presently described

| IC50 (c-Kit(V654A); Table 1, 200 μM ATP) [nM] | IC50 [1, 2] [nM] | SMILES | other results |
| --- | --- | --- | --- |
| 0.49 | 48 | COCCOc1cc2[nH]nc(-c3cc(-c4ccc(C(=O)N5Cc6cnn(C)c6C5)cc4)no3)c2cc1F [A213, 5-fluoro-6-(2-methoxyethoxy)-3-[3-(4-{1-methyl-1H,4H,5H,6H-pyrrolo[3,4-c]pyrazole-5-carbonyl}phenyl)-1,2-oxazol-5-yl]-1H-indazole] |  |
| 1 | 73 | COCCOc1cc2[nH]nc(-c3cc(-c4ccc(C(=O)N5Cc6cncnc6C5)cc4)no3)c2cc1F [A207, 5-fluoro-6-(2-methoxyethoxy)-3-[3-(4-{5H,6H,7H-pyrrolo[3,4-d]pyrimidine-6-carbonyl}phenyl)-1,2-oxazol-5-yl]-1H-indazole] |  |
| 4.8 | 250 | COCCOc1ccc2c(-c3cc(-c4ccc(C(=O)N5CCC[C@@H]5C(C)(C)O)cc4)no3)n[nH]c2c1 [A2, 2-[(2R)-1-(4-{5-[6-(2-methoxyethoxy)-1H-indazol-3-yl]-1,2-oxazol-3-yl}benzoyl)pyrrolidin-2-yl]propan-2-ol] |  |
| 1.3 | 160 | COCCOc1cc2[nH]nc(-c3cc(-c4ccc(C(=O)N5CC(N6CCN(C)CC6)C5)cc4)no3)c2cc1F [A102, 5-fluoro-6-(2-methoxyethoxy)-3-(3-{4-[3-(4-methylpiperazin-1-yl)azetidine-1-carbonyl]phenyl}-1,2-oxazol-5-yl)-1H-indazole] |  |
| 14 | 730 | C[C@H]1CN(C)CCN1C(=O)c1ccc(-c2cc(-c3n[nH]c4cc(C(F)(F)F)ccc34)on2)cc1 [A50, 3-(3-{4-[(2S)-2,4-dimethylpiperazine-1-carbonyl]phenyl}-1,2-oxazol-5-yl)-6-(trifluoromethyl)-1H-indazole] |  |
| 20 | 190 | COCCOc1cc2[nH]nc(-c3cc(-c4ccc(C(=O)N5CC(N6CCOCC6)C5)nc4)no3)c2cc1F [A69, (5-{5-[5-fluoro-6-(2-methoxy-ethoxy)-1H-indazol-3-yl]-isoxazol-3-yl}-pyridin-2-yl)-(3-morpholin-4-yl-azetidin-1-yl)-methanone] |  |
|  |  | COCCOc1cc2[nH]nc(-c3cn(-c4ccc(C(=O)N5CC(F)C5)cc4)nn3)c2cc1F [reference compound] | IC50 (c-Kit(V654A); [3]): 11 nM; IC50 [1, 3]: 580 nM |
|  |  | COCCOc1cc2[nH]nc(-c3cc(-c4ccc(C(=O)N5CCOC[C@H]5C)cc4)no3)c2cc1F [compound 114] | IC50 (c-Kit(V654A); [4]): 0.91 nM; IC50 [1, 4]: 56 nM |
|  |  | COCCOc1cc2[nH]nc(-c3cn(-c4ccc(C(=O)N5CC(C#N)C5)cc4)nn3)c2cc1F [reference compound] | IC50 (c-Kit(V654A); [3]): 13 nM; IC50 [1, 3]: 2200 nM |
| 1.9 | 87 | COCCOc1cc2[nH]nc(-c3cc(-c4ccc(C(=O)N5CC(N6CCN(C7COC7)CC6)C5)cc4)no3)c2cc1F [A197, 5-fluoro-6-(2-methoxyethoxy)-3-[3-(4-{3-[4-(oxetan-3-yl)piperazin-1-yl]azetidine-1-carbonyl}phenyl)-1,2-oxazol-5-yl]-1H-indazole] |  |
| 6.4 | 160 | COCCOc1cc2[nH]nc(-c3cc(-c4ccc(N5CCCS5(=O)=O)cc4)no3)c2cc1F [A138, 2-(4-{5-[5-fluoro-6-(2-methoxyethoxy)-1H-indazol-3-yl]-1,2-oxazol-3-yl}phenyl)-1lambda6,2-thiazolidine-1,1-dione] |  |
| 1.3 | 32 | COCCOc1cc2[nH]nc(-c3cc(-c4ccc(C(=O)N5CCC56COC6)cc4)no3)c2cc1F [A112, 5-fluoro-6-(2-methoxyethoxy)-3-[3-(4-{6-oxa-1-azaspiro[3.3]heptane-1-carbonyl}phenyl)-1,2-oxazol-5-yl]-1H-indazole] |  |
| 2.3 | 170 | COCCOc1cc2[nH]nc(-c3cc(-c4ccc(C(=O)N5CC6(CN(C)C6)C5)cc4)no3)c2cc1F [A88, 5-fluoro-6-(2-methoxyethoxy)-3-[3-(4-{6-methyl-2,6-diazaspiro[3.3]heptane-2-carbonyl}phenyl)-1,2-oxazol-5-yl]-1H-indazole] |  |
| 4 | 430 | COCCOc1cc2[nH]nc(-c3cc(-c4ccc(C(=O)NC5CN(C)C5)cc4)no3)c2cc1F [A73, 4-{5-[5-fluoro-6-(2-methoxyethoxy)-1H-indazol-3-yl]-1,2-oxazol-3-yl}-N-(1-methylazetidin-3-yl)benzamide] |  |
| 4.9 | 340 | COCCOc1cc2[nH]nc(-c3cc(-c4cccc(C(=O)N(C)C)c4)no3)c2cc1F [A135, 3-{5-[5-fluoro-6-(2-methoxy-ethoxy)-1H-indazol-3-yl]-isoxazol-3-yl}-N,N-dimethyl-benzamide] |  |
| 23 | 130 | O=C(c1ccc(-c2cc(-c3n[nH]c4cc(OCCO)c(F)cc34)on2)cc1)N1CCN(C2COC2)CC1 [A205, 2-{[5-fluoro-3-(3-{4-[4-(oxetan-3-yl)piperazine-1-carbonyl]phenyl}-1,2-oxazol-5-yl)-1H-indazol-6-yl]oxy}ethan-1-ol] |  |
| 1.7 | 80 | COCCOc1cc2[nH]nc(-c3cc(-c4ccc(N=S5(=O)CCNCC5)cc4)no3)c2cc1F [A129, 1-[(4-{5-[5-fluoro-6-(2-methoxyethoxy)-1H-indazol-3-yl]-1,2-oxazol-3-yl}phenyl)imino]-1lambda6-thiomorpholin-1-one] |  |
| 0.54 | 120 | COCCOc1cc2[nH]nc(-c3cc(-c4ccc(C(=O)N5CC(O)(c6cccnc6)C5)cc4)no3)c2cc1F [A221, 1-(4-{5-[5-fluoro-6-(2-methoxyethoxy)-1H-indazol-3-yl]-1,2-oxazol-3-yl}benzoyl)-3-(pyridin-3-yl)azetidin-3-ol] |  |
| 0.91 | 56 | COCCOc1cc2[nH]nc(-c3cc(-c4ccc(C(=O)N5CCOC[C@H]5C)cc4)no3)c2cc1F [A114, 5-fluoro-6-(2-methoxyethoxy)-3-(3-{4-[(3R)-3-methylmorpholine-4-carbonyl]phenyl}-1,2-oxazol-5-yl)-1H-indazole] |  |
| 21 | 740 | COCCOc1cc2[nH]nc(-c3cc(-c4ccc(C(=O)N5CC(C#N)C5)nc4)no3)c2cc1F [A96, 1-(5-{5-[5-fluoro-6-(2-methoxy-ethoxy)-1H-indazol-3-yl]-isoxazol-3-yl}-pyridine-2-carbonyl)-azetidine-3-carbonitrile] |  |
| 0.09 | 100 | [2H]C1([2H])NC([2H])([2H])C([2H])([2H])N(C(=O)c2ccc(-c3cc(-c4n[nH]c5cc(OCCOC)c(F)cc45)on3)cc2)C1([2H])[2H] [A232, 5-fluoro-6-(2-methoxyethoxy)-3-(3-{4-[(2,2,3,3,5,5,6,6-^2H8)piperazine-1-carbonyl]phenyl}-1,2-oxazol-5-yl)-1H-indazole hydrochloride] |  |
|  |  | COCCOc1cc2[nH]nc(-c3cn(-c4ccc(C(=O)N5CCN(C)CC5)cc4)nn3)c2cc1F [reference compound] | IC50 (c-Kit(V654A); [3]): 15 nM; IC50 [1, 3]: 840 nM |
| 1.7 | 110 | COCCOc1cc2[nH]nc(-c3cc(-c4ccc(C(=O)N(C)CCS(C)(=O)=O)cc4)no3)c2cc1F [A150, 4-{5-[5-fluoro-6-(2-methoxyethoxy)-1H-indazol-3-yl]-1,2-oxazol-3-yl}-N-(2-methanesulfonylethyl)-N-methylbenzamide] |  |
| 35 | 1800 | COCCOc1cc2[nH]nc(-c3cc(-c4nc(C(=O)N5CC(N6CCOCC6)C5)cs4)no3)c2cc1F [A84, 5-fluoro-6-(2-methoxyethoxy)-3-(3-{4-[3-(morpholin-4-yl)azetidine-1-carbonyl]-1,3-thiazol-2-yl}-1,2-oxazol-5-yl)-1H-indazole] |  |
